13 compounds from PubChem BioAssay (NCI) can be followed below.

Where “and” joins values, the source holds several entries; their conditions need not be identical. Equal entries are not always repeated.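 Interpolation was linear, between the two tested concentrations surrounding the appropriate level; five concentrations were tested over 48 hours in 96-well plates. Here, GI50 denotes the concentration required for 50% inhibition of growth. Definition used: TGI = concentration required for complete inhibition of growth.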

Assay in all cases: NCI anticancer screen, dose series, 48 h
In assay [1] the test system is M19-MEL melanoma.
Assay [2] concerns SK-MEL-2 melanoma.
Assay [3] concerns UACC-62 melanoma.
The test system of assay [4] is SN12C renal.
Assay [5] concerns HCC-2998 colon.
The subject of assay [6] is HCT-116 colon.
The test system of assay [7] is NCI-H522 lung.
Assay [8] concerns KM20L2 colon.
Assay [9] relates to SNB-75 CNS.
Assay [10] relates to SNB-19 CNS.

Take `CC1CCC2C(C)C(=O)OC3OC4(C)CCC1C32OO4` (stereo not drawn): the TGI in assay [1], in assay [2], in [3], in [4], in assay [5] and in assay [6] was above 100 µM each time. Moreover, the TGI is above 92.6 µM in assay [7], above 100 µM in [8], above 97.2 µM in assay [9] and above 100 µM in [10]. The GI50 in assay [3] and in assay [10] was above 100 µM throughout.
For the compound `O=C(O)CN(c1ccccc1)S(=O)(=O)c1cccc([N+](=O)[O-])c1`, the TGI in [1], in assay [2], in [3], in [4], in [7] and in assay [8] was above 100 µM each time. Further, the TGI in assay [9] and in assay [10] was above 100 µM each time.
As to `CC1(C)NC(=O)N(CCCCCCN2C(=O)NC(C)(C)C2=O)C1=O`, the TGI in [1], in assay [2], in [3], in [4], in assay [5] and in [6] was above 100 µM each time. For the same compound, the TGI in [7], in [8], in assay [9] and in assay [10] was above 100 µM in each case.
As for `COc1cc2c(cc1OC)C(C#N)N(C(=O)c1ccccc1)C=C2OC(=O)c1ccccc1` (stereo not drawn), the TGI is 90.5 µM in [1]; 54.7 µM in assay [2]; 45 µM in assay [3]; above 100 µM in assay [4]; above 100 µM in assay [5]; 39.2 µM in assay [7]. Besides, the TGI is above 100 µM in [8], 40 µM in [9] and 67.5 µM in assay [10].
For the compound `C/C(CCn1[nH]c(=O)ccc1=O)=N\NC(=O)C(N)=O`, the TGI in assay [1], in [2], in [3], in assay [4], in assay [5] and in [6] was above 100 µM each time. Moreover, the TGI in [7], in assay [8], in [9] and in [10] was above 100 µM in each case.
Consider `N#CC1C[C@@H]2CC3(CCC2CN1C(=O)c1ccccc1)OCCO3` (stereo partly drawn), for which the TGI in assay [1] was above 100 µM; in assay [2], above 21.6 µM; in assay [3], above 100 µM; in assay [4], above 100 µM; in assay [5], above 100 µM; in [6] it was above 100 µM. Further, the TGI in [8], in assay [9] and in assay [10] was above 100 µM each time.
For `N#CCCN(CCC#N)c1ccc(/C=C(/NC(=O)c2cc([N+](=O)[O-])ccc2Cl)C(=O)NN)cc1`, the TGI in assay [1], in assay [2], in assay [3], in assay [4], in assay [5] and in assay [6] was above 100 µM each time. Moreover, the TGI in [7], in assay [8], in assay [9] and in assay [10] was above 100 µM throughout.
Take `C/C(=N\NC(=S)N1CCN(c2ccccn2)CC1)c1ccccn1`: the TGI was 2.94 µM in assay [1]; 12.9 µM in [2]; 18.5 µM in assay [4]; 15.3 µM in assay [5]; 13.8 µM in [6]; 0.71 µM and 2.07 µM in [7]. Moreover, the TGI came to 17.6 µM in [9] and 15 µM in [10]. Further, the GI50 is 0.231 µM in [2]; below 0.0114 µM in assay [3]; 0.252 µM in assay [5]; 0.179 µM in assay [7]; 0.183 µM in assay [10].
`O=C(NC(=Nc1ccccc1)SCSC(=Nc1ccccc1)NC(=O)c1ccco1)c1ccco1`: the TGI in [1], in [2], in assay [3], in [4], in assay [5] and in assay [6] was above 100 µM in each case. Further, the TGI was 91.5 µM in assay [7], above 100 µM in [8], 35.1 µM in assay [9] and 79.1 µM in assay [10].
Regarding `c1ccc2c(c1)SC(=C1Sc3ccccc3S1)S2`, the TGI in assay [1] is above 100 µM; in [3] it was above 100 µM; in assay [4] it was above 100 µM; in [5] it was above 100 µM; in assay [8] it was above 100 µM; in assay [9], 73.3 µM. This compound also gave a TGI in [10] above 100 µM.
Regarding `O=[N+]([O-])c1ccc(/C=C/c2nc3ccc(Cl)cc3[nH]2)cc1`, the GI50 in assay [2] was above 100 µM; in assay [3], above 100 µM; in assay [4], 24 µM; in assay [5], 19.5 µM; in assay [6], 15.7 µM; in [7], 14.1 µM. In addition, the GI50 in assay [9] was 76.9 µM; in assay [10], above 100 µM. Besides, the TGI in assay [2] was above 100 µM; in assay [3], above 100 µM; in assay [4], 91 µM; in assay [5] it was 88.1 µM; in assay [6], 37.6 µM; in [7], above 100 µM. Moreover, the TGI in [9] and in [10] was above 100 µM in each case.
In the case of `ClCCCSSCCCCl`, the TGI in assay [2] is above 100 µM; in assay [3], above 100 µM; in [4] it was above 95.1 µM; in assay [5], above 88.2 µM; in assay [6] it was above 90.8 µM; in [7], 65.6 µM. In addition, the TGI in [9] and in assay [10] was above 100 µM in each case.
On to `CNC(=O)c1nn(C)c2c1C(C)(C)Cc1cnc(Nc3cccc(N4CCN(C)CC4)c3)nc1-2`, for which the GI50 in assay [2] is 0.244 µM; in [3], 0.369 µM; in assay [4] it was 0.323 µM; in assay [5] it was 0.83 µM; in assay [6] it was 0.176 µM; in assay [7] it was 0.554 µM. Moreover, the GI50 in assay [9] was 0.159 µM; in assay [10] it was 0.322 µM. Also, the TGI in [2] was 4.22 µM; in [3], 11.6 µM; in assay [4], 31 µM; in [5], 14.9 µM; in [6], 31.2 µM; in [7], 11.1 µM. The TGI came to 1.42 µM in [9] and 28.7 µM in [10].
